# Experimental data: patent publication US6706663B2, “Herbicidal 3-heterocyclic substituted benzisothiazole and benzisoxazole compounds” (Wyeth, priority 2000, dated 2004)
# Tests used:
# [1] = tested on: ECHCG (Echinochloa crus-galli); assay: Postemergence herbicidal evaluation; type: in vivo, (L.) Beau
# In short: (§1)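 Seedlings grown about two weeks in flats, sprayed, then kept under standard greenhouse care. Rated visually 4–5 weeks after treatment on a 0–9 scale (stand, vigour, malformation, size, chlorosis, overall appearance) relative to untreated control; repeat tests averaged.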
# SETVI (Setaria viridis) = assay: Postemergence herbicidal evaluation; type: in vivo, (L.) Beau
# In short: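 Seedlings about two weeks old were sprayed with compound in 50/50 acetone/water plus 0.5% TWEEN 20, at the equivalent of about 0.0040 to 1.000 kg/ha. Plants were kept in a greenhouse and visually rated 0-9 against a control four to five weeks after treatment. Repeat tests were averaged.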
# [2] = tested on: TRZAWR (Wheat, Winter, cv Riband); assay: Postemergence herbicidal evaluation; type: in vivo, Triticum aestivum
# In short: as §1
# [3] = tested on: ABUTH (Abutilon theophrasti); assay: Preemergence herbicidal evaluation; type: in vivo, Medic.; settings: preemergence, rated 4-5 weeks after treatment
# [4] = tested on: AMBEL (Ambrosia artemisifolia); assay: Preemergence herbicidal evaluation; type: in vivo, L.; settings: preemergence, rated 4-5 weeks after treatment
# In short: (§2)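 Visual 0–9 rating versus control (stand, vigor, malformation, size, chlorosis, overall appearance), scored four to five weeks post-treatment. Preemergence spray of aqueous acetone solution onto freshly seeded soil cups; plants grown under conventional greenhouse care.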
# [5] = tested on: CASOB (Cassia obtusifolia); assay: Preemergence herbicidal evaluation; type: in vivo, L.; settings: preemergence, rated 4-5 weeks after treatment
# In short: as §2
# [6] = tested on: CHEAL (Chenopodium album); assay: Preemergence herbicidal evaluation; type: in vivo, L.; settings: preemergence, rated 4-5 weeks after treatment
# In short: as §2
# [7] = tested on: IPOHE (Ipomoea hederacea); assay: Preemergence herbicidal evaluation; type: in vivo, (L.) Jacq.; settings: preemergence, rated 4-5 weeks after treatment
# [8] = tested on: GLXMAW (Soybean, Williams); assay: Preemergence herbicidal evaluation; type: in vivo, Glycine max, (L.) Merr. cv Williams; settings: preemergence, rated 4-5 weeks after treatment
# ZEAMX (Corn, Field) = assay: Preemergence herbicidal evaluation; type: in vivo, Zea mays, L.; settings: preemergence, rated 4-5 weeks after treatment
# [9] = tested on: ECHORC (Echinochloa oryzoides); assay: Flooded paddy, preemergence weed control; type: in vivo, Echinochloa oryzoides (Ard.) Fritsch.; settings: rated 3-4 weeks after treatment, 0-9 rating scale
# In short: (§3)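 Ratings of 0-9 reflect visual comparison with a control for stand, vigor, deformity, size, chlorosis and overall look. Propagules were placed in shallow silt loam (top 0.5 cm) under a continuous 1.5–3 cm flood and grown in the greenhouse.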
# CYPIR (Cyperus iria) = assay: Flooded paddy, preemergence weed control; type: in vivo; settings: rated 3-4 weeks after treatment, 0-9 rating scale
# In short: as §3
# [10] = tested on: CYPSE (Cyperus serotinus); assay: Flooded paddy, preemergence weed control; type: in vivo, Rottb.; settings: rated 3-4 weeks after treatment, 0-9 rating scale
# In short: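 Herbicidal effect was scored visually on a 0–9 scale against an untreated control 3–4 weeks after treatment. Compounds were applied preemergence as 50/50 v/v aqueous/acetone mixtures into flood water (1.5–3 cm deep over silt loam), at roughly 0.0080 to 0.1250 kg/ha active ingredient.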
# [11] = tested on: MOOVA (Monochoria vaginalis); assay: Flooded paddy, preemergence weed control; type: in vivo, Presl.; settings: rated 3-4 weeks after treatment, 0-9 rating scale
# In short: as §3
# [12] = tested on: SAGPY (Sagittaria pygmaea); assay: Flooded paddy, preemergence weed control; type: in vivo, L.; settings: rated 3-4 weeks after treatment, 0-9 rating scale
# In short: as §3
# ORYSAT (Rice, Tebonnet) = assay: Flooded paddy, post-transplant rice tolerance; type: in vivo, Oryza sativa, (L.) Tebonnet; settings: flooded paddy, post-transplant rice, rated 3-4 weeks after treatment, 0-9 rating scale
# In short: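 Steps: transplant two ten-day-old seedlings into silt loam; flood to 1.5-3 cm above soil; apply herbicide post-transplant; maintain water on greenhouse benches; rate stand, vigor, malformation, size and chlorosis on a 0-9 visual scale versus control.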
smiles,measurement,setting,value
"COc1ccsc1-c1nsc2ccc(-n3c(=O)cc(C(F)(F)F)n(C)c3=O)cc12 [Compound 10, 3-[3-(3-methoxy-2-thienyl)-1,2-benzisothiazol-5-yl]-1-methyl-6-(trifluoromethyl)uracil]","Postemergence herbicidal rating, ECHCG",[1]; rate 0.0320 kg/ha,0.0
same,"Postemergence herbicidal rating, ECHCG",[1]; rate 0.0620 kg/ha,0.0
same,"Postemergence herbicidal rating, ECHCG",[1]; rate 0.1250 kg/ha,0.0
same,"Postemergence herbicidal rating, SETVI",SETVI (Setaria viridis); rate 0.0320 kg/ha,0.0
same,"Postemergence herbicidal rating, SETVI",SETVI (Setaria viridis); rate 0.0620 kg/ha,0.5
same,"Postemergence herbicidal rating, SETVI",SETVI (Setaria viridis); rate 0.1250 kg/ha,0.0
same,"Postemergence herbicidal rating, TRZAWR",[2]; rate 0.0320 kg/ha,2.5
same,"Postemergence herbicidal rating, TRZAWR",[2]; rate 0.0620 kg/ha,2.8
same,"Postemergence herbicidal rating, TRZAWR",[2]; rate 0.1250 kg/ha,4.0
same,ABUTH preemergence herbicidal rating,[3]; Rate 0.0620 kg/ha,7.0
same,ABUTH preemergence herbicidal rating,[3]; Rate 0.1250 kg/ha,9.0
same,ABUTH preemergence herbicidal rating,[3]; Rate 0.2500 kg/ha,9.0
same,AMBEL preemergence herbicidal rating,[4]; Rate 0.0620 kg/ha,4.0
same,AMBEL preemergence herbicidal rating,[4]; Rate 0.1250 kg/ha,6.0
same,AMBEL preemergence herbicidal rating,[4]; Rate 0.2500 kg/ha,7.0
same,CASOB preemergence herbicidal rating,[5]; Rate 0.0620 kg/ha,0.5
same,CASOB preemergence herbicidal rating,[5]; Rate 0.1250 kg/ha,1.0
same,CASOB preemergence herbicidal rating,[5]; Rate 0.2500 kg/ha,1.0
same,CHEAL preemergence herbicidal rating,[6]; Rate 0.0620 kg/ha,8.0
same,CHEAL preemergence herbicidal rating,[6]; Rate 0.1250 kg/ha,9.0
same,CHEAL preemergence herbicidal rating,[6]; Rate 0.2500 kg/ha,9.0
same,IPOHE preemergence herbicidal rating,[7]; Rate 0.0620 kg/ha,0.5
same,IPOHE preemergence herbicidal rating,[7]; Rate 0.1250 kg/ha,0.5
same,IPOHE preemergence herbicidal rating,[7]; Rate 0.2500 kg/ha,2.0
same,GLXMAW preemergence herbicidal rating,[8]; Rate 0.0620 kg/ha,0.5
same,GLXMAW preemergence herbicidal rating,[8]; Rate 0.1250 kg/ha,1.0
same,GLXMAW preemergence herbicidal rating,[8]; Rate 0.2500 kg/ha,2.5
same,ZEAMX preemergence herbicidal rating,"ZEAMX (Corn, Field); Rate 0.0620 kg/ha",4.0
same,ZEAMX preemergence herbicidal rating,"ZEAMX (Corn, Field); Rate 0.1250 kg/ha",6.5
same,ZEAMX preemergence herbicidal rating,"ZEAMX (Corn, Field); Rate 0.2500 kg/ha",7.0
same,"herbicidal rating, ECHORC",[9]; rate 0.0320 kg/ha,0.0
same,"herbicidal rating, ECHORC",[9]; rate 0.1250 kg/ha,5.0
same,"herbicidal rating, CYPIR",CYPIR (Cyperus iria); rate 0.0320 kg/ha,4.0
same,"herbicidal rating, CYPIR",CYPIR (Cyperus iria); rate 0.1250 kg/ha,9.0
same,"herbicidal rating, CYPSE",[10]; rate 0.0320 kg/ha,0.0
same,"herbicidal rating, CYPSE",[10]; rate 0.1250 kg/ha,0.0
same,"herbicidal rating, MOOVA",[11]; rate 0.0320 kg/ha,9.0
same,"herbicidal rating, MOOVA",[11]; rate 0.1250 kg/ha,9.0
same,"herbicidal rating, SAGPY",[12]; rate 0.0320 kg/ha,0.0
same,"herbicidal rating, SAGPY",[12]; rate 0.1250 kg/ha,0.0
same,"herbicidal rating, ORYSAT (rice tolerance)","ORYSAT (Rice, Tebonnet); rate 0.0320 kg/ha",0.0
same,"herbicidal rating, ORYSAT (rice tolerance)","ORYSAT (Rice, Tebonnet); rate 0.1250 kg/ha",4.0
"Cn1c(C(F)(F)F)cc(=O)n(-c2ccc3snc(-c4ncccn4)c3c2)c1=O [Compound 12, 1-methyl-3-[3-(2-pyrimidinyl)-1,2-benzisothiazol-5-yl]-6-(trifluoromethyl)uracil]","Postemergence herbicidal rating, ECHCG",[1]; rate 0.0620 kg/ha,4.0
same,"Postemergence herbicidal rating, SETVI",SETVI (Setaria viridis); rate 0.0620 kg/ha,9.0
same,"Postemergence herbicidal rating, TRZAWR",[2]; rate 0.0620 kg/ha,6.0
same,ABUTH preemergence herbicidal rating,[3]; Rate 0.2500 kg/ha,9.0
same,AMBEL preemergence herbicidal rating,[4]; Rate 0.2500 kg/ha,9.0
same,CASOB preemergence herbicidal rating,[5]; Rate 0.2500 kg/ha,8.5
same,CHEAL preemergence herbicidal rating,[6]; Rate 0.2500 kg/ha,9.0
same,IPOHE preemergence herbicidal rating,[7]; Rate 0.2500 kg/ha,9.0
same,GLXMAW preemergence herbicidal rating,[8]; Rate 0.2500 kg/ha,9.0
same,ZEAMX preemergence herbicidal rating,"ZEAMX (Corn, Field); Rate 0.2500 kg/ha",8.5
same,"herbicidal rating, ECHORC",[9]; rate 0.1250 kg/ha,8.7
same,"herbicidal rating, CYPIR",CYPIR (Cyperus iria); rate 0.1250 kg/ha,9.0
same,"herbicidal rating, CYPSE",[10]; rate 0.1250 kg/ha,7.0
same,"herbicidal rating, MOOVA",[11]; rate 0.1250 kg/ha,9.0
same,"herbicidal rating, SAGPY",[12]; rate 0.1250 kg/ha,3.7
same,"herbicidal rating, ORYSAT (rice tolerance)","ORYSAT (Rice, Tebonnet); rate 0.1250 kg/ha",7.0
"Cc1nnc(-c2nsc3ccc(-n4c(=O)cc(C(F)(F)F)n(C)c4=O)cc23)s1 [Compound 17, 1-methyl-3-[3-(5-methyl-1,3,4-thiadiazol-2-yl)-1,2-benzisothiazol-5-yl]-6-(trifluoromethyl)uracil]","Postemergence herbicidal rating, ECHCG",[1]; rate 0.0320 kg/ha,0.0
same,"Postemergence herbicidal rating, ECHCG",[1]; rate 0.0620 kg/ha,0.0
same,"Postemergence herbicidal rating, ECHCG",[1]; rate 0.1250 kg/ha,0.0
same,"Postemergence herbicidal rating, ECHCG",[1]; rate 0.2500 kg/ha,0.0
same,"Postemergence herbicidal rating, SETVI",SETVI (Setaria viridis); rate 0.0320 kg/ha,0.0
same,"Postemergence herbicidal rating, SETVI",SETVI (Setaria viridis); rate 0.0620 kg/ha,0.0
same,"Postemergence herbicidal rating, SETVI",SETVI (Setaria viridis); rate 0.1250 kg/ha,3.0
same,"Postemergence herbicidal rating, SETVI",SETVI (Setaria viridis); rate 0.2500 kg/ha,7.0
same,"Postemergence herbicidal rating, TRZAWR",[2]; rate 0.0320 kg/ha,3.0
same,"Postemergence herbicidal rating, TRZAWR",[2]; rate 0.0620 kg/ha,3.0
same,"Postemergence herbicidal rating, TRZAWR",[2]; rate 0.1250 kg/ha,3.0
same,"Postemergence herbicidal rating, TRZAWR",[2]; rate 0.2500 kg/ha,3.5
same,ABUTH preemergence herbicidal rating,[3]; Rate 0.0620 kg/ha,9.0
same,ABUTH preemergence herbicidal rating,[3]; Rate 0.1250 kg/ha,9.0
same,ABUTH preemergence herbicidal rating,[3]; Rate 0.2500 kg/ha,9.0
same,AMBEL preemergence herbicidal rating,[4]; Rate 0.0620 kg/ha,4.0
same,AMBEL preemergence herbicidal rating,[4]; Rate 0.1250 kg/ha,5.0
same,AMBEL preemergence herbicidal rating,[4]; Rate 0.2500 kg/ha,9.0
same,CASOB preemergence herbicidal rating,[5]; Rate 0.0620 kg/ha,0.0
same,CASOB preemergence herbicidal rating,[5]; Rate 0.1250 kg/ha,0.0
same,CASOB preemergence herbicidal rating,[5]; Rate 0.2500 kg/ha,3.0
same,CHEAL preemergence herbicidal rating,[6]; Rate 0.0620 kg/ha,9.0
same,CHEAL preemergence herbicidal rating,[6]; Rate 0.1250 kg/ha,9.0
same,CHEAL preemergence herbicidal rating,[6]; Rate 0.2500 kg/ha,9.0
same,IPOHE preemergence herbicidal rating,[7]; Rate 0.0620 kg/ha,0.0
same,IPOHE preemergence herbicidal rating,[7]; Rate 0.1250 kg/ha,2.0
same,IPOHE preemergence herbicidal rating,[7]; Rate 0.2500 kg/ha,9.0
same,GLXMAW preemergence herbicidal rating,[8]; Rate 0.0620 kg/ha,0.0
same,GLXMAW preemergence herbicidal rating,[8]; Rate 0.1250 kg/ha,3.0
same,GLXMAW preemergence herbicidal rating,[8]; Rate 0.2500 kg/ha,5.0
same,ZEAMX preemergence herbicidal rating,"ZEAMX (Corn, Field); Rate 0.0620 kg/ha",6.0
same,ZEAMX preemergence herbicidal rating,"ZEAMX (Corn, Field); Rate 0.1250 kg/ha",7.0
same,ZEAMX preemergence herbicidal rating,"ZEAMX (Corn, Field); Rate 0.2500 kg/ha",8.0
same,"herbicidal rating, ECHORC",[9]; rate 0.0080 kg/ha,0.0
same,"herbicidal rating, ECHORC",[9]; rate 0.0320 kg/ha,3.0
same,"herbicidal rating, ECHORC",[9]; rate 0.1250 kg/ha,6.0
same,"herbicidal rating, CYPIR",CYPIR (Cyperus iria); rate 0.0080 kg/ha,0.0
same,"herbicidal rating, CYPIR",CYPIR (Cyperus iria); rate 0.0320 kg/ha,3.5
same,"herbicidal rating, CYPIR",CYPIR (Cyperus iria); rate 0.1250 kg/ha,7.0
same,"herbicidal rating, CYPSE",[10]; rate 0.0080 kg/ha,0.0
same,"herbicidal rating, CYPSE",[10]; rate 0.0320 kg/ha,3.0
same,"herbicidal rating, CYPSE",[10]; rate 0.1250 kg/ha,4.5
same,"herbicidal rating, MOOVA",[11]; rate 0.0080 kg/ha,6.0
same,"herbicidal rating, MOOVA",[11]; rate 0.0320 kg/ha,9.0
same,"herbicidal rating, MOOVA",[11]; rate 0.1250 kg/ha,9.0
same,"herbicidal rating, SAGPY",[12]; rate 0.0080 kg/ha,0.0
same,"herbicidal rating, SAGPY",[12]; rate 0.0320 kg/ha,2.5
same,"herbicidal rating, SAGPY",[12]; rate 0.1250 kg/ha,5.5
same,"herbicidal rating, ORYSAT (rice tolerance)","ORYSAT (Rice, Tebonnet); rate 0.0080 kg/ha",0.0
same,"herbicidal rating, ORYSAT (rice tolerance)","ORYSAT (Rice, Tebonnet); rate 0.0320 kg/ha",2.5
same,"herbicidal rating, ORYSAT (rice tolerance)","ORYSAT (Rice, Tebonnet); rate 0.1250 kg/ha",4.5
